# From patent US20150094294A1, “COMPOUNDS AND METHODS FOR TREATING MALARIA” (Cellceutix Corporation, priority 2012, published 2015)
# What was measured:
# Format in all cases: cell-based
# [1] = system: P. falciparum 3D7 (chloroquine-sensitive); experiment: Anti-malarial activity, P. falciparum 3D7 culture, 72 hour, DNA content by flow cytometry; conditions: Plasmodium falciparum, 3D7, 72 h, synchronized ring-stage parasites
# Method in brief: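 Magnet-synchronized ring-stage parasites in RPMI 1640/Albumax II were plated at 0.5% parasitemia, 4% final hematocrit, with compound added as 2× dilutions (2.5 μM to 20 nM) for 72 h. Fixed, Triton-permeabilized cells were stained with SYTOX Green (5 μM final), and DNA content was measured by flow cytometry to derive IC50.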
# [2] = system: P. falciparum DD2 (chloroquine-resistant); experiment: Anti-malarial activity, P. falciparum DD2 culture, 72 hour, DNA content by flow cytometry; conditions: Plasmodium falciparum, synchronized ring-stage parasites
# Procedure: Numerous compounds were screened in cultures of the malaria parasite P. falciparum 3D7 (chloroquine-sensitive) and DD2 (chloroquine-resistant). The compounds were also screened for toxixcity against 3T3 cells, HepG2 cells, and in a hemolysis assay. In brief, P. falciparum parasites were cultured in RPMI 1640 (Invitrogen) supplemented with Albumax II (Invitrogen). For synchronization, schizont stage parasites were magnet purified using a SuperMACS™ II Cell Separation Unit (Miltenyi Biotech). For IC50 determinations, synchronized ring-stage parasites were plated at 0.5% parasitemia and 8% hematocrit in 96-well plates at a total volume of 50 μL. Serial dilutions of 2× concentration of the respective compound, ranging from 2.5 μM to 20 nM, were added to the wells to bring the total volume up to 100 μL and 4% hematocrit. Compounds were assayed for a 72 hour period, after which the cultures were fixed with a solution of 4% paraformaldehyde and 0.08% glutaraldhyde in PBS. The cells were then permeabilized with 0.25% Triton X-100, and SYTOX Green Nucleic Acid Stain (Invitrogen) in PBS was added to a final concentration of 5 μM. DNA content, as an indicator of parasitemia, was analyzed on an Accuri C6 Flow Cytometer with C-Sampler. IC50 curves were generated using GraphPad Prism (GraphPad Software).
# 3T3 cells = experiment: Cytotoxicity against 3T3 cells; conditions: 3T3 cells
# HepG2 cells = experiment: Cytotoxicity against HepG2 cells; conditions: HepG2 cells
# in vitro = experiment: in vitro
IC50 [1],IC50 [2],EC50 (in vitro),SMILES,Cytotoxicity 3T3 EC50 (3T3 cells),Cytotoxicity HepG2 EC50 (HepG2 cells)
880 nM,795 nM,22 µg/mL,N=C(N)NCCc1cc(Br)cc(C#Cc2cc(C#Cc3cc(Br)cc(CCNC(=N)N)c3)cc(C(F)(F)F)c2)c1 [Compound 179],insol,insol
,297 nM,22 µg/mL,N=C(N)NCCOc1ccccc1C(=O)Nc1ccc2c(c1)Cc1cc(NC(=O)c3ccccc3OCCNC(=N)N)ccc1-2 [Compound 172],Insol.,Insol.
